Assay results: US20040166163A1, “Antibacterial composition for medical tool” (priority 2001, published 2004)

Assays:
Assay type in all cases: cell-based
[1] = tested on: Bacillus subtilis; experiment: Antimicrobial test of PVC test piece, bacteria (surviving cells); settings: soft PVC sheet; ZnPT 0.01 + test compound 0.3 parts per 100 PVC; 35° C., 2 days
Description: (§1) A mixture having the formulation described below was roll kneaded at 170° C. to prepare a sheet, which was pressed at 180° C. for 5 minutes to obtain a 0.5 mm thick soft PVC sheet. A 10 mm×10 mm test piece was cut out of the soft PVC sheet and evaluated for antimicrobial properties against bacteria (Nos. 1 to 5 in Table 1) and fungi (Nos. 6 to 8 in Table 1) in accordance with the respective methods described below.
(§2) The culture solution was applied to the test piece, and the test piece was tightly covered with polyethylene cling film. After cultivation at 35° C. for 2 days, the number of surviving cells was counted and rated based on the following criteria.
(§3) A mixture having the formulation shown below was roll kneaded at 170° C. to prepare a sheet, which was pressed at 180° C. for 5 minutes to obtain a 0.5 mm thick semi-rigid PVC sheet. A 10 mm×10 mm test piece was cut out of the semi-rigid PVC sheet. Zinc pyrithione and a test compound were previously compounded to prepare an antimicrobial composition in a predetermined ratio to give the formulation. The test piece was tested in the same manner as in Example 1.

[2] = tested on: Escherichia coli; experiment: as above; settings: soft PVC sheet; ZnPT 0.01 + test compound 0.3 parts per 100 PVC; 35° C., 2 days
Description: as §1, §2, §3

[3] = tested on: Lactobacillus; experiment: as above; settings: soft PVC sheet; ZnPT 0.01 + test compound 0.3 parts per 100 PVC; 35° C., 2 days
Description: as §1, §2, §3

[4] = tested on: MRSA; experiment: as above; settings: soft PVC sheet; ZnPT 0.01 + test compound 0.3 parts per 100 PVC; 35° C., 2 days
Description: as §1, §2, §3

[5] = tested on: Staphylococcus aureaus; experiment: as above; settings: soft PVC sheet; ZnPT 0.01 + test compound 0.3 parts per 100 PVC; 35° C., 2 days
Description: as §1, §2, §3

[6] = tested on: Brewer's yeast; experiment: Antimicrobial test of PVC test piece, fungi (growth on agar-covered piece); set-up: key: A: No growth on the test piece.; B: The grown fungi covers less than 30% of the test piece's surface area.; C: The grown fungi covers 30% or more and less than 70% of the test piece's surface area.; D: The grown fungi covers 70% or more of the test piece's surface area; settings: soft PVC sheet; ZnPT 0.01 + test compound 0.3 parts per 100 PVC; 35° C., 1 week
Description: as §1
(§4) The test piece was placed at the center of a culture dish, and a common agar medium was poured to thinly cover the test piece. The culture solution was applied to the agar medium and cultivated at 35° C. for 1 week. The growth of the fungus was observed and rated based on the following criteria.
as §3

[7] = tested on: Kurokawa mold; experiment: as above; set-up: key: A: No growth on the test piece.; B: The grown fungi covers less than 30% of the test piece's surface area.; C: The grown fungi covers 30% or more and less than 70% of the test piece's surface area.; D: The grown fungi covers 70% or more of the test piece's surface area; settings: soft PVC sheet; ZnPT 0.01 + test compound 0.3 parts per 100 PVC; 35° C., 1 week
Description: as §1, §4, §3

[8] = tested on: Trichophyton; experiment: as above; set-up: key: A: No growth on the test piece.; B: The grown fungi covers less than 30% of the test piece's surface area.; C: The grown fungi covers 30% or more and less than 70% of the test piece's surface area.; D: The grown fungi covers 70% or more of the test piece's surface area; settings: soft PVC sheet; ZnPT 0.01 + test compound 0.3 parts per 100 PVC; 35° C., 1 week
Description: as §1, §4, §3

## Cc1cc2c(c(C(C)(C)C)c1)OP(=O)([O-])Oc1c(cc(C)cc1C(C)(C)C)C2.[Na+] [No. 6]
[1]
  Survival rate rating, microorganism 3: Bacillus subtilis: A (The survival rate is less than 0.1%.)
[2]
  Survival rate rating, microorganism 5: Escherichia coli: A (The survival rate is less than 0.1%.)
[3]
  Survival rate rating, microorganism 4: Lactobacillus: A (The survival rate is less than 0.1%.)
[4]
  Survival rate rating, microorganism 2: MRSA: A (The survival rate is less than 0.1%.)
[5]
  Survival rate rating, microorganism 1: Staphylococcus aureaus: A (The survival rate is less than 0.1%.)
[6]
  Fungal growth rating, microorganism 7: Brewer's yeast: A
[7]
  Fungal growth rating, microorganism 8: Kurokawa mold: A
[8]
  Fungal growth rating, microorganism 6: Trichophyton: A

## CC1c2cc(C(C)(C)C)cc(C(C)(C)C)c2OP(=O)([O-])Oc2c1cc(C(C)(C)C)cc2C(C)(C)C.[Na+] (stereo not drawn) [No. 7]
[1]
  Survival rate rating, microorganism 3: Bacillus subtilis: A (The survival rate is less than 0.1%.)
[2]
  Survival rate rating, microorganism 5: Escherichia coli: A (The survival rate is less than 0.1%.)
[3]
  Survival rate rating, microorganism 4: Lactobacillus: A (The survival rate is less than 0.1%.)
[4]
  Survival rate rating, microorganism 2: MRSA: A (The survival rate is less than 0.1%.)
[5]
  Survival rate rating, microorganism 1: Staphylococcus aureaus: A (The survival rate is less than 0.1%.)
[6]
  Fungal growth rating, microorganism 7: Brewer's yeast: A
[7]
  Fungal growth rating, microorganism 8: Kurokawa mold: A
[8]
  Fungal growth rating, microorganism 6: Trichophyton: A

## Cc1c(C(C)(C)C)cc(C(C)(C)C)c2c1C(C)c1c(C)c(C(C)(C)C)cc(C(C)(C)C)c1OP(=O)([O-])O2.[Na+] (stereo not drawn) [No. 8]
[1]
  Survival rate rating, microorganism 3: Bacillus subtilis: A (The survival rate is less than 0.1%.)
[2]
  Survival rate rating, microorganism 5: Escherichia coli: A (The survival rate is less than 0.1%.)
[3]
  Survival rate rating, microorganism 4: Lactobacillus: A (The survival rate is less than 0.1%.)
[4]
  Survival rate rating, microorganism 2: MRSA: A (The survival rate is less than 0.1%.)
[5]
  Survival rate rating, microorganism 1: Staphylococcus aureaus: A (The survival rate is less than 0.1%.)
[6]
  Fungal growth rating, microorganism 7: Brewer's yeast: A
[7]
  Fungal growth rating, microorganism 8: Kurokawa mold: A
[8]
  Fungal growth rating, microorganism 6: Trichophyton: A
